Measurements published in patent publication US20050054018A1, “Activated checkpoint therapy and methods of use thereof” (priority 2002, published 2005).

Experiments:
A549 = assay: Cancer cell line IC50, A549; type: cell-based; details: Homo sapiens, read-out: Cancer Cell Lines, IC50, Lung A549
SW480 = assay: Cancer cell line IC50, SW480; type: cell-based; details: Homo sapiens, read-out: Cancer Cell Lines, IC50, Colon SW480
PaCa-2 = assay: Cancer cell line IC50, PaCa-2; type: cell-based; details: Homo sapiens, read-out: Cancer Cell Lines, IC50, Pancreas PaCa-2
MCF10A = assay: Normal cell line, MCF10A; type: cell-based; details: Homo sapiens, MCF-10A; read-out: Normal Cell Lines, Breast MCF10A
Method: (§1) In this experiment, exponentially growing cells were seeded at 1000 cells/well and allowed to attach for 48 h. […] After 10-20 days, cells were fixed and stained with modified Wright-Giemsa stain.

DLD1 = assay: Cancer cell line IC50, DLD1; type: cell-based; details: Homo sapiens, DLD-1; read-out: Cancer Cell Lines, IC50, Colon DLD1
Method: DLD1 cells were seeded into 6-well, 96-well plates and allowed to attach overnight. […] For the colony formation assay, colonies were allowed to grow for 14 days; MT assay cells continued in culture for an additional 2 days.

HT-29 = assay: Cancer cell line IC50, HT-29; type: cell-based; details: Homo sapiens, read-out: Cancer Cell Lines, IC50, Colon HT-29
MCF-7 = assay: Cancer cell line IC50, MCF-7; type: cell-based; details: Homo sapiens, MCF7; read-out: Cancer Cell Lines, IC50, Breast MCF-7
Method: as §1

NCM460 = assay: Normal cell line, NCM460; type: cell-based; details: Homo sapiens, read-out: Normal Cell Lines, Colon NCM460
[1] = test system: Normal Cell Lines vs Cancer Cell Lines; assay: Fold selectivity, normal vs cancer cell lines; type: cell-based
human cancer cells = assay: Combination with Taxol, cancer cell survival in vitro; type: cell-based; details: in the presence of β-Lapachone
[2] = test system: human prostate cancer cells (PC-3); assay: Colony survival, combination with GL331, PC-3; type: cell-based
Text: (§2) The number of colonies in the control well (solvent-treated) was taken as 100% survival.

E2F [3] = assay: Gel mobility shift assay, NCM460 nuclear proteins; type: cell-based, human; details: NCM460, 4 μM, up to 2 hours
Text: (§3) The arrow denotes the location of the putative E2F protein-DNA complex.

[4] = test system: human colon carcinoma cells (SW480); assay: Flow cytometry sub-G1 apoptosis, SW480; type: cell-based; details: SW480, 2-4 μM, 24 h
Method: (§4) Cells were treated for 24 h, then were subjected to flow cytometric analysis after staining with propidium iodide.

[5] = test system: normal human breast epithelial cells (MCF-10A); assay: Colony formation assay, MCF-10A; type: cell-based; details: 4 h treatment, 10-20 days
Method: as §1

cytochrome c = assay: Western blot, cytochrome c release in DLD1; type: cell-based, human
PARP = assay: Western blot, PARP cleavage; type: cell-based, human; details: after 4 hours of exposure
[6] = test system: human colon cancer cell line DLD1; assay: Colony formation and MTT assay, DLD1; type: cell-based; details: DLD1, 4 hour exposure, 4-5 μM
Method: DLD1 cells were seeded into 6-well, 96-well plates and allowed to attach overnight. […] Control cells were treated with DMSO equivalent to the highest dose of β-Lapachone used. For the colony formation assay, colonies were allowed to grow for 14 days; MT assay cells continued in culture for an additional 2 days.

E2F [7] = assay: Gel mobility shift assay, DLD1 nuclear proteins; type: cell-based, human; details: DLD1, 4 μM
Text: as §3

[8] = test system: human breast cancer cells (MCF-7); assay: Colony formation assay, MCF-7; type: cell-based; details: MCF-7, 4 h treatment, 2-4 μM and higher, 10-20 days
Method: as §1

[9] = test system: human multiple myeloma (MM) cells; assay: MTT assay, multiple myeloma cells; type: cell-based; details: 4 μM, 24 h, all seven MM cell lines
[10] = test system: normal human colon cells (NCM460); assay: Flow cytometry sub-G1 apoptosis, NCM460; type: cell-based; details: NCM460, 24 h
Method: as §4

[11] = test system: human pancreatic cancer cells (Paca-2); assay: Colony survival, combination with gemcitabine, Paca-2; type: cell-based; details: gemcitabine 5 μg/ml day 1 followed by β-lapachone 2 μM day 2
Text: as §2

[12] = test system: human colon carcinoma cells (DLD1); assay: Flow cytometry sub-G1 apoptosis, DLD1; type: cell-based; details: DLD1, 2-4 μM, 24 h
Method: as §4

[13] = test system: normal human Peripheral Blood Mononuclear Cells (PBMC); assay: MTT assay, PBMC; type: cell-based; details: 0.5, 2, 4, and 8 μM, 24 h; fresh or proliferating PBMC
Method: Proliferating PBMC were generated by 72 h incubation with phytohemagglutinin (PHA) at 2 μg/mL.

| SMILES | IC50 (A549) [nM] | IC50 (SW480) [nM] | IC50 (PaCa-2) [nM] | IC50 (MCF10A) [µM] | IC50 (DLD1) [nM] | IC50 (HT-29) [nM] | IC50 (MCF-7) [nM] | IC50 (NCM460) [µM] | Fold Selectivity [1] | further results |
| --- | --- | --- | --- | --- | --- | --- | --- | --- | --- | --- |
| CC1(C)CCC2=C(S1)c1ccccc1C(=O)C2=O [3,4-dihydro-2,2-dimethyl-2H-naphtho[1,2-b]thiopyran-5,6-dione] | 1700 | 1500 | 1500 | 6.7 | 2000 | 1800 | 1000 | 7.5 | ˜4.5 | – |
| CC(C)=CCC1CC2=C(OC1(C)C)c1ccccc1C(=O)C2=O (stereo not shown) [3,4-dihydro-2,2-dimethyl-3-(3-methyl-2-butenyl)-2H-naphtho[1,2-b]pyran-5,6-dione] | – | 1800 | – | – | 1300 | – | 1000 | 10 | ˜7 | – |
| CC1(C)CCSC2=C1C(=O)C(=O)c1ccccc12 [3,4-dihydro-4,4-dimethyl-2H-naphtho[1,2-b]thiopyran-5,6-dione] | 1600 | – | 1200 | 6.3 | – | 1600 | – | 6 | ˜4 | – |
| CC(=O)O[C@H]1C(=O)[C@@]2(C)[C@H]([C@H](OC(=O)c3ccccc3)[C@]3(O)C[C@H](OC(=O)[C@H](O)[C@@H](NC(=O)c4ccccc4)c4ccccc4)C(C)=C1C3(C)C)[C@]1(OC(C)=O)CO[C@@H]1C[C@@H]2O [Taxol®, paclitaxel] | – | – | – | – | – | – | – | – | – | reduction of effective Taxol concentration (human cancer cells): at least 10 fold |
| CC1(C)CCC2=C(O1)c1ccccc1C(=O)C2=O [β-lapachone, 3,4-dihydro-2,2-dimethyl-2H-naphtho[1,2-b]pyran-5,6-dione] | – | 3300 | 1600 | 5.8 | 3600 | 2100 | 1000 | 8.1 | – | colony survival, combination with GL331 ([2]; β-lapachone 2 μM and GL331 2 μM simultaneously, 4 h): complete eradication of colony forming units; colony survival, combination with GL331 ([2]; β-lapachone 2 μM day 1 followed by GL331 2 μM day 2): complete eradication of colony forming units; level of E2F expression (E2F [3]): essentially unchanged; apoptosis (sub-G1 fraction) [4]: induce apoptosis; number of colonies [5]: no reduction in the number of colonies; size of the colonies [5]: smaller; time of peak cytochrome c release (cytochrome c; DLD1): 2 h; exposure time to cytochrome c release (cytochrome c; DLD1, earliest release): 1 h; PARP cleavage (PARP): cleavage of PARP; viable cells (colony formation and MTT assay) [6]: eliminates viable cells; nuclear E2F protein levels vs. starting levels (E2F [7]; 0.5 hours): increased; nuclear E2F protein levels vs. starting levels (E2F [7]; 1 hour): markedly elevated; colonies [8]: essentially complete elimination of colonies; cell viability in cultures (MTT) [9]: significantly decreased; apoptosis (sub-G1 fraction) [10]: no apoptosis; colony survival, combination with gemcitabine [11]: complete eradication of colony forming units; apoptosis (sub-G1 fraction) [12]: induce apoptosis; cytotoxicity to PBMC growth (MTT) [13]: No cytotoxicity |
